# Values of other authors in patent US6730813B2, “Method for producing n-(phosphonomethyl) glycine” (Monsanto Technology LLC, priority 2000, dated 2004).
# Where two headings read alike, the source gives them in different places.
compound,measurement,setting,value
"O=C(O)CNCP(=O)(O)O [glyphosate, N-(phosphonomethyl)glycine]",solubility in organic solvents,"organic solvents, compared with water",much lower
same,solubility in water,5° C.,0.8%
same,solubility in water,20° C.,1.1%
same,solubility in water,95° C.,6.5%
